Laboratory results taken from patent US8686002B2, “Heterocyclic compounds and their use as binding partners for 5-HT5 receptors” (AbbVie Deutschland GmbH & Co. KG, priority 2005, dated 2014).
Counter-ions that a name gives are not always drawn.

What follows are compounds tested against 5-HT5A (Homo sapiens, UniProt P47898) (assay: Affinity of selected compounds for 5-HT5A (Ki)).
Type: binding
Protocol: In both assays, different concentrations of the test substances are used and the Ki and IC50 values are determined.

5-HT5A, sequence (P47898 whole entry): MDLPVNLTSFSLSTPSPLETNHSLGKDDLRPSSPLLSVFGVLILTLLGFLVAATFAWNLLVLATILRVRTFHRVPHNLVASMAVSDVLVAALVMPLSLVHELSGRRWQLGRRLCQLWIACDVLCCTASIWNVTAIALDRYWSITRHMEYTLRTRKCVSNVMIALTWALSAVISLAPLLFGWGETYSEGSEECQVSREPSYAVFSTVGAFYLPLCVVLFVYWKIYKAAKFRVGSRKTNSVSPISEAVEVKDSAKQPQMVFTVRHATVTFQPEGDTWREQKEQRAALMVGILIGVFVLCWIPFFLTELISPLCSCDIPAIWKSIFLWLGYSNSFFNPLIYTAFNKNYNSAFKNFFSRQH

Structure (SMILES)	Ki [nM]
COc1ccccc1CN1Cc2ccccc2N=C1N [Example 64, 3-(2-Methoxybenzyl)-3,4-dihydroquinazolin-2-amine hydrochloride]	< 300
COc1ccccc1CN1Cc2ccc(Cl)cc2N=C1N [Example 65, 7-Chloro-3-(2-methoxybenzyl)-3,4-dihydroquinazolin-2-amine]	< 300
COc1ccccc1CN1Cc2ccc(C(F)(F)F)cc2N=C1N [Example 66, 3-(2-Methoxybenzyl)-7-(trifluoromethyl)-3,4-dihydroquinazolin-2-amine hydrochloride]	< 300
COc1cc(Cl)ccc1CN1Cc2ccccc2N=C1N [Example 67, 3-(4-Chloro-2-methoxybenzyl)-3,4-dihydroquinazolin-2-amine hydrochloride]	< 300
NC1=Nc2ccccc2CN1Cc1cccc2c1OCC2 [Example 68, 3-(2,3-Dihydro-1-benzofuran-7-ylmethyl)-3,4-dihydroquinazolin-2-amine hydrochloride]	< 300
NC1=Nc2ccccc2CN1Cc1ccccc1OC(F)(F)F [Example 69, 3-[2-(Trifluoromethoxy)benzyl]-3,4-dihydroquinazolin-2-amine]	< 300
COc1ccc(CN2Cc3ccccc3N=C2N)c(OC)c1 [Example 70, 3-(2,4-Dimethoxybenzyl)-3,4-dihydroquinazolin-2-amine]	< 10000
COc1cccc(CN2Cc3ccccc3N=C2N)c1OC [Example 71, 3-(2,3-Dimethoxybenzyl)-3,4-dihydroquinazolin-2-amine hydrochloride]	< 10000
NC1=Nc2ccccc2CN1Cc1ccccc1O [Example 72, 2-[(2-Aminoquinazolin-3(4H)-yl)methyl]phenol]	< 10000
COc1ccccc1CN1Cc2ccccc2N=C1NO [Example 73, 2-(Hydroxyamino)-3-(2-methoxybenzyl)-3,4-dihydroquinazoline]	< 10000
COc1ccccc1CN1Cc2ccccc2N=C1NC1Cc2ccccc2C1 [Example 74, N-(2,3-Dihydro-1H-inden-2-yl)-3-(2-methoxybenzyl)-3,4-dihydroquinazolin-2-amine acetate]	< 300
COc1ccccc1CN1Cc2ccccc2N=C1NCc1cccnc1 [Example 75, 3-(2-Methoxybenzyl)-2-[(pyridin-3-ylmethyl)amino]-3,4-dihydroquinazoline acetate]	< 10000
CCCCNC1=Nc2ccccc2CN1Cc1ccccc1OC [Example 76, 2-(Butylamino)-3-(2-methoxybenzyl)-3,4-dihydroquinazoline hydrochloride]	< 10000
COc1ccccc1CN1Cc2ccccc2N=C1NCC(C)C [Example 77, 2-(Isobutylamino)-3-(2-methoxybenzyl)-3,4-dihydroquinazoline acetate]	< 10000
COc1ccccc1CN1Cc2ccccc2N=C1N1CCNCC1 [Example 78, 3-(2-Methoxybenzyl)-2-piperazin-1-yl-3,4-dihydroquinazoline hydrochloride]	< 10000
COc1ccccc1CN1Cc2ccccc2N=C1N1CCN(C)CC1 [Example 79, 3-(2-Methoxybenzyl)-2-(4-methylpiperazin-1-yl)-3,4-dihydroquinazoline fumarate]	< 10000
COc1ccccc1CN1Cc2ccccc2N=C1N1CCN(Cc2ccccc2)CC1 [Example 80, 2-(4-Benzylpiperazin-1-yl)-3-(2-methoxybenzyl)-3,4-dihydroquinazoline fumarate]	< 10000
COc1cccc(OC)c1CN1Cc2ccc(Br)cc2N=C1N [Example 81, 7-Bromo-3-(2,6-dimethoxybenzyl)-3,4-dihydroquinazolin-2-amine]	< 300
COc1cccc(OC)c1CN1Cc2ccc(-c3ccccc3)cc2N=C1N [Example 82, 3-(2,6-Dimethoxybenzyl)-7-phenyl-3,4-dihyroquinazoli-2-aminium acetate]	< 300

Structure (SMILES)	Ki [nM]
COc1ccc(-c2ccc3c(c2)N=C(N)N(Cc2c(OC)cccc2OC)C3)cc1 [Example 83, 3-(2,6-Dimethoxybenzyl)-7-(4-methoxyphenyl)-3,4-dihydroquinazolin-2-aminium acetate]	< 10000
COc1cccc(OC)c1CN1Cc2ccc(C)cc2N=C1N [Example 84, 3-(2,6-Dimethoxybenzyl)-7-methyl-3,4-dihydroquinazolin-2-aminium acetate]	< 300
COc1cccc(OC)c1CN1Cc2ccc(-c3cccnc3)cc2N=C1N [Example 85, 3-(2,6-Dimethoxybenzyl)-7-pyridin-3-yl-3,4-dihydroquinazolin-2-aminium acetate]	< 300
COc1cccc(OC)c1CN1Cc2ccc(-c3cccs3)cc2N=C1N [Example 86, 3-(2,6-Dimethoxybenzyl)-7-(2-thienyl)-3,4-dihydroquinazolin-2-aminium acetate]	< 300
COc1cccc(OC)c1CN1Cc2ccc(-c3ccc(OC(F)(F)F)cc3)cc2N=C1N [Example 87, 3-(2,6-Dimethoxybenzyl)-7-[4-trifluoromethoxy)phenyl]-3,4-dihydroquinazoline-2-aminium acetate]	< 300
COc1cccc(OC)c1CN1Cc2ccc(Nc3ccccc3)cc2N=C1N [Example 88, 7-Anilino-3-(2,6-dimethoxybenzyl)-3,4-dihydroquinazolin-2-aminium acetate]	< 300
COc1cccc(OC)c1CN1Cc2cc(Cl)ccc2N=C1N [Example 89, 6-Chloro-3-(2,6-dimethoxybenzyl)-3,4-dihydroquinazolin-2-amine]	< 300
COc1cccc(OC)c1CN1Cc2ccc(Cl)cc2N=C1N [Example 90, 7-Chloro-3-(2,6-dimethoxybenzyl)-3,4-dihydroquinazolin-2-amine]	< 300
COc1ccccc1CN1Cc2ccc([N+](=O)[O-])cc2N=C1N [Example 91, 3-(2-Methoxybenzyl)-7-nitro-3,4-dihydroquinazolin-2-amine]	< 300
COc1cccc(OC)c1CN1Cc2ccccc2N=C1NC1CCCCCC1 [Example 92, N-Cycloheptyl-3-(2,6-dimethoxybenzyl)-3,4-dihydroquinazolin-2-amine hydrochloride]	< 300
COc1cccc(OC)c1CN1Cc2ccccc2N=C1NCc1cccc2ccccc12 [Example 93, 3-(2,6-Dimethoxybenzyl)-N-(1-naphthylmethyl)-3,4-dihydroquinazolin-2-amine hydrochloride]	< 10000
COc1cccc(OC)c1CN1Cc2ccccc2N=C1NCc1ccccn1 [Example 94, [3-(2,6-Dimethoxybenzyl)-3,4-dihydroquinazolin-2-yl]pyridin-2-ylmethylamine hydrochloride]	< 10000
COc1cccc(OC)c1CN1Cc2ccccc2N=C1NCc1ccccc1 [Example 95, N-Benzyl-3-(2,6-dimethoxybenzyl)-3,4-dihydroquinazolin-2-amine hydrochloride]	< 10000
COc1ccccc1CN1Cc2ccccc2N=C1NC1CCN(Cc2ccccc2)CC1 [Example 96, N-(1-Benzylpiperidin-4-yl)-3-(2-methoxybenzyl)-3,4-dihydroquinazolin-2-amine fumarate]	< 10000
COc1ccccc1CN1Cc2ccccc2N=C1NCCc1ccccc1 [Example 97, [3-(2-Methoxybenzyl)-3,4-dihydroquinazolin-2-yl]phenethylamine hydrochloride]	< 10000
COc1ccccc1CN1Cc2ccccc2N=C1NCc1cccc2ccccc12 [Example 98, 3-(2-Methoxybenzyl)-N-(1-naphthylmethyl)-3,4-dihydroquinazolin-2-amine hydrochloride]	< 10000
COc1ccccc1CN1Cc2ccccc2N=C1NCc1cccs1 [Example 100, 3-(2-Methoxybenzyl)-N-(2-thienylmethyl)-3,4-dihydroquinazolin-2-amine hydrochloride]	< 10000
COc1ccc2c(c1)CN(Cc1ccccc1OC)C(N)=N2 [Example 101, 6-Methoxy-3-(2-methoxybenzyl)-3,4-dihydroquinazolin-2-amine]	< 300
COc1ccccc1CN1Cc2cc(Cl)ccc2N=C1N [Example 102, 6-Chloro-3-(2-methoxybenzyl)-3,4-dihydroquinazolin-2-amine]	< 300
